The source of these data is ChEMBL document CHEMBL5053512, “Discovery and Preclinical Pharmacology of an Oral Bromodomain and Extra-Terminal (BET) Inhibitor Using Scaffold-Hopping and Structure-Guided Drug Design” (J Med Chem, 2021).

A short description of data set [1]: Inhibition of c-MYC expression in human JJN3R cells measured after 4 hrs. The class given is functional, cell-based. Particulars: JJN-3R.
Data set [2] in a line: Antitumour activity against human JJN3R cells measured after 72 hrs by MTS assay. The format is functional, cell-based. Particulars: JJN-3R.
Data set [3] can be described thus: Metabolic stability in human liver microsomes assessed as parent compound remaining at 0.5 uM after 10 mins. The format is ADME, Microsome. The following applies: read-out: Stability. (In general: Liver microsomes are vesicles of endoplasmic reticulum, rich in cytochrome P450 enzymes.)
A short description of data set [4]: Metabolic stability in mouse liver microsomes assessed as parent compound remaining at 0.5 uM after 10 mins. The class given is ADME, Microsome. The following applies: read-out: Stability.
Data set [5] can be described thus: Permeability coefficient of the compound by PAMPA. The class given is ADME. The following applies: read-out: permeability. Background: The PAMPA barrier holds no transporters, so it reflects passive diffusion.
Data set [6] can be described thus: Permeability coefficient across apical to basolateral side in human Caco-2 cells. The class given is ADME, cell-based. The following applies: read-out: permeability. For orientation: Caco-2 monolayers are a common model of the intestinal barrier.
Data set [7] is described as follows: Permeability coefficient across basolateral to apical side in human Caco-2 cells. The class given is ADME, cell-based. Particulars: read-out: permeability.
A short description of data set [8]: Cmax in mouse at 30 mg/kg, po. The format is ADME, organism-based. Further details: dose 30 mg/kg, route po. Particulars: in vivo.
The nature of data set [9]: AUC (0 to 7 hrs) in mouse at 30 mg/kg, po. The class given is ADME, organism-based. Further details: time < 7 hr, dose 30 mg/kg, route po. Particulars: in vivo.
The target in data set [10] is Bromodomain-containing protein 4 (Homo sapiens, UniProt O60885). Kind of data set: Inhibition of human BRD4 (1 to 477 residues) measured after 60 mins by TR-FRET assay.
The nature of data set [11]: Efflux ratio of permeability in human Caco-2 cells. The format is ADME, cell-based.
The target in data set [12] is Bromodomain-containing protein 2 (Homo sapiens, UniProt P25440). Kind of data set: Inhibition of human BRD2 measured by TR-FRET assay.
For data set [13], the target named is Bromodomain-containing protein 3 (Homo sapiens, UniProt Q15059). Kind of data set: Inhibition of human BRD3 measured by TR-FRET assay.
Another data set deals with Cytochrome P450 1A2 (Homo sapiens, UniProt P05177). Put plainly: Inhibition of CYP1A2 (unknown origin). The format is ADME.
For another data set, the target named is Cytochrome P450 2C9 (Homo sapiens, UniProt P11712). Put plainly: Inhibition of CYP2C9 (unknown origin). The format is ADME.
The next data set addresses Cytochrome P450 2C19 (Homo sapiens, UniProt P33261). Put plainly: Inhibition of CYP2C19 (unknown origin). The class given is ADME.
Another data set concerns the target Cytochrome P450 2D6 (Homo sapiens, UniProt P10635). Put plainly: Inhibition of CYP2D6 (unknown origin). The format is ADME.
The target in the next data set is Cytochrome P450 3A4 (Homo sapiens, UniProt P08684). Kind of data set: Inhibition of CYP3A4 (unknown origin). The format is ADME.
The target of data set [14] is Voltage-gated inwardly rectifying potassium channel KCNH2 (Homo sapiens, UniProt Q12809). Put plainly: Inhibition of human ERG by flux assay.
Sequence of Voltage-gated inwardly rectifying potassium channel KCNH2 (Q12809 whole entry): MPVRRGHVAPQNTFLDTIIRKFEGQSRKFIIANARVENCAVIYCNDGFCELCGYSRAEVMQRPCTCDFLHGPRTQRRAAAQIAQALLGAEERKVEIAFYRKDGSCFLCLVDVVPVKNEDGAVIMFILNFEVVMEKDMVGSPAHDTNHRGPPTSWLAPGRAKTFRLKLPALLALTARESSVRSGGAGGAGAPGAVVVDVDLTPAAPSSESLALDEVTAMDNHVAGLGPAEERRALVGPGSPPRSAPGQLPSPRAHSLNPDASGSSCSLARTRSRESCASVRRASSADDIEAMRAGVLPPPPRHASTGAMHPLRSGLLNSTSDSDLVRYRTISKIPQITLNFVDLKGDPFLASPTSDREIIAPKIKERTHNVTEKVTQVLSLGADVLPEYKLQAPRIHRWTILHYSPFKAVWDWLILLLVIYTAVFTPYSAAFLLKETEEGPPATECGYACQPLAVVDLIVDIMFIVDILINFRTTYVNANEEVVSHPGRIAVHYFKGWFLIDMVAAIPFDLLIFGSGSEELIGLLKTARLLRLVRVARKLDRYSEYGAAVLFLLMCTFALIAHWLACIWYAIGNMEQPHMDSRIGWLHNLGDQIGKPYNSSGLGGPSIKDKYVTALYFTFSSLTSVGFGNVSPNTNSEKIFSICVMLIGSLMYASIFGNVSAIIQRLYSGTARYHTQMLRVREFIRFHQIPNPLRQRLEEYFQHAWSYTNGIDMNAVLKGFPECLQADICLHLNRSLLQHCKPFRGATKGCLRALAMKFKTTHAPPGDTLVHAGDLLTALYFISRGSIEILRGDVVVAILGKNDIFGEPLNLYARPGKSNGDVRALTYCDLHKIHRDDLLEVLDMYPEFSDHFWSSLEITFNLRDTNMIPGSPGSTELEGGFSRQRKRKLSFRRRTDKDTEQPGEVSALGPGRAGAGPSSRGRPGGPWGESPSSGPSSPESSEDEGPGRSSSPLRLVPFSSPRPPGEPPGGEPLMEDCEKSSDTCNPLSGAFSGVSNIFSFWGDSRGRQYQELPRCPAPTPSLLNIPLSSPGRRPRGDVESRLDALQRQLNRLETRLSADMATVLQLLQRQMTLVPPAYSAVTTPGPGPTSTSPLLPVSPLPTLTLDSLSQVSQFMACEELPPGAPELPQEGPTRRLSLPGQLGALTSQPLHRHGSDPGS

Sequence of Cytochrome P450 1A2 (P05177 whole entry): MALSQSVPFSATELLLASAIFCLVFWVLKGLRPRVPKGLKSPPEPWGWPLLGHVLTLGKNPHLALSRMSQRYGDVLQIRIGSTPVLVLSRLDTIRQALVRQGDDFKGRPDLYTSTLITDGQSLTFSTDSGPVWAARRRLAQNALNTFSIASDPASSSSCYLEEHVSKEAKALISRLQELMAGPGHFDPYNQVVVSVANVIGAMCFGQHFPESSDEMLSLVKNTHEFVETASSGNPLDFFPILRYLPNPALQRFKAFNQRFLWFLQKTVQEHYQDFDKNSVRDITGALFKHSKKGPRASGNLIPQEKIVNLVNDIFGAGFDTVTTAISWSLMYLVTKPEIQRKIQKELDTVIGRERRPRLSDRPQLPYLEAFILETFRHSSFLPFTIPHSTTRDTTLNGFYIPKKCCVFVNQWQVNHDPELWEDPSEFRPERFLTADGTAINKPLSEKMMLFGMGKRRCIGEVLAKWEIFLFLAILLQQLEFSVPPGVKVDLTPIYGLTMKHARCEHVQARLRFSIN
Sequence of Cytochrome P450 2C9 (P11712 whole entry): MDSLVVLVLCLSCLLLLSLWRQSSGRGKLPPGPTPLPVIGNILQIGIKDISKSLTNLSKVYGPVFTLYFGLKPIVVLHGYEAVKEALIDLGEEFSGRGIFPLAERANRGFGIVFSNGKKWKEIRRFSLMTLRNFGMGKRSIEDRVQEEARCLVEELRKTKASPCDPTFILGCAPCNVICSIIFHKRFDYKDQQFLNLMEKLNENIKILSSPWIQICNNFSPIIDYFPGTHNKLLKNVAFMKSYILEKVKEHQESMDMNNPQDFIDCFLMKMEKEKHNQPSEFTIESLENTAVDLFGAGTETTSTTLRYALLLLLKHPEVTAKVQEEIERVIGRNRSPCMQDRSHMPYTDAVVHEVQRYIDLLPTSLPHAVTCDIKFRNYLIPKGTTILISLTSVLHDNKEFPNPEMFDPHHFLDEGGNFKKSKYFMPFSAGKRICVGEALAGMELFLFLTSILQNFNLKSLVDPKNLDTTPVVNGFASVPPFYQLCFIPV
Sequence of Bromodomain-containing protein 2 (P25440 whole entry): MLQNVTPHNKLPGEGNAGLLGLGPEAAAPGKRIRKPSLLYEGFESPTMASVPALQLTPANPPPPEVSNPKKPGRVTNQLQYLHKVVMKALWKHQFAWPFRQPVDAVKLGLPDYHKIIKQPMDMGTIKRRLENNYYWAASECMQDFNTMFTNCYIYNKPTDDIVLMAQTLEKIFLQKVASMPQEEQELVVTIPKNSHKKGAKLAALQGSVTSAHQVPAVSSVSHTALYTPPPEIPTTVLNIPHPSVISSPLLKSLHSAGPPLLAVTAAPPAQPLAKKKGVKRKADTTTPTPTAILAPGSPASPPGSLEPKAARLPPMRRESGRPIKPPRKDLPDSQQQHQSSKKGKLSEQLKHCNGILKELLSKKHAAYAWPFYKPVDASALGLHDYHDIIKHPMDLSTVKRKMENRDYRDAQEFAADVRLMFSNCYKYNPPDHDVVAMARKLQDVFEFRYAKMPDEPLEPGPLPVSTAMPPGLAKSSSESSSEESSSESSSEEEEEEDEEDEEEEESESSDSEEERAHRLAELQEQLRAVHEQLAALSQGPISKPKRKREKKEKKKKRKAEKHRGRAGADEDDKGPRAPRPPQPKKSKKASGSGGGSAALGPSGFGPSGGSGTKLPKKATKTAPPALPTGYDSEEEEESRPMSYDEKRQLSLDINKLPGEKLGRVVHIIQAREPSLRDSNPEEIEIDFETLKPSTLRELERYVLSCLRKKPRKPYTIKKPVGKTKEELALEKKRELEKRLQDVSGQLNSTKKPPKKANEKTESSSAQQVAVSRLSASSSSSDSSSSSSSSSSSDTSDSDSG
Sequence of Cytochrome P450 2C19 (P33261 whole entry): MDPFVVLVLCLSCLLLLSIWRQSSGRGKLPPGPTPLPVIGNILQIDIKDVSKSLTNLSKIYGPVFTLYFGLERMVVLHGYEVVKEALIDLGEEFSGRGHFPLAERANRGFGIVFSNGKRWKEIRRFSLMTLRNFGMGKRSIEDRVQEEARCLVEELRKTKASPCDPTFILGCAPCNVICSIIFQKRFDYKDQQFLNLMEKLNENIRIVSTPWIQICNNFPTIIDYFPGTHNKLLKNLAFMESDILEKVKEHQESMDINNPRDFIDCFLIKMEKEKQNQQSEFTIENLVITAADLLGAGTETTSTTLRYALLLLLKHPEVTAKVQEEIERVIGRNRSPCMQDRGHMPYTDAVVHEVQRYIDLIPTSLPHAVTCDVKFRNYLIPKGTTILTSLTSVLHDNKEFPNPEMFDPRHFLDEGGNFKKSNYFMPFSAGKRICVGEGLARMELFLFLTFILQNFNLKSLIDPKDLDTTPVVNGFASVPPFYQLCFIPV
Sequence of Cytochrome P450 2D6 (P10635 whole entry): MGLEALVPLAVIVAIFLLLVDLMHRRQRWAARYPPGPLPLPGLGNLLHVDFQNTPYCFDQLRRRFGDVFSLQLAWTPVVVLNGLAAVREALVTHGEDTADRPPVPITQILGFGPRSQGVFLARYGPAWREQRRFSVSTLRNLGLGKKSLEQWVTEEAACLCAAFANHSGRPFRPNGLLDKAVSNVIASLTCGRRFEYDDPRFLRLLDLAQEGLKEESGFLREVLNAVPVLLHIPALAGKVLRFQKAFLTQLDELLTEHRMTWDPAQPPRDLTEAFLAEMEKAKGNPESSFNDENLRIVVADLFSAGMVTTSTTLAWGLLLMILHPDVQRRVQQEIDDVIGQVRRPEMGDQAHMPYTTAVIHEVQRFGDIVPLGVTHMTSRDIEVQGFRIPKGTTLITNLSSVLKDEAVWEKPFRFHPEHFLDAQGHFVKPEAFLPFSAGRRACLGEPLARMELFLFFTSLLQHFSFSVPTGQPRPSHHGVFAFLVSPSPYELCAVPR
Sequence of Bromodomain-containing protein 3 (Q15059 whole entry): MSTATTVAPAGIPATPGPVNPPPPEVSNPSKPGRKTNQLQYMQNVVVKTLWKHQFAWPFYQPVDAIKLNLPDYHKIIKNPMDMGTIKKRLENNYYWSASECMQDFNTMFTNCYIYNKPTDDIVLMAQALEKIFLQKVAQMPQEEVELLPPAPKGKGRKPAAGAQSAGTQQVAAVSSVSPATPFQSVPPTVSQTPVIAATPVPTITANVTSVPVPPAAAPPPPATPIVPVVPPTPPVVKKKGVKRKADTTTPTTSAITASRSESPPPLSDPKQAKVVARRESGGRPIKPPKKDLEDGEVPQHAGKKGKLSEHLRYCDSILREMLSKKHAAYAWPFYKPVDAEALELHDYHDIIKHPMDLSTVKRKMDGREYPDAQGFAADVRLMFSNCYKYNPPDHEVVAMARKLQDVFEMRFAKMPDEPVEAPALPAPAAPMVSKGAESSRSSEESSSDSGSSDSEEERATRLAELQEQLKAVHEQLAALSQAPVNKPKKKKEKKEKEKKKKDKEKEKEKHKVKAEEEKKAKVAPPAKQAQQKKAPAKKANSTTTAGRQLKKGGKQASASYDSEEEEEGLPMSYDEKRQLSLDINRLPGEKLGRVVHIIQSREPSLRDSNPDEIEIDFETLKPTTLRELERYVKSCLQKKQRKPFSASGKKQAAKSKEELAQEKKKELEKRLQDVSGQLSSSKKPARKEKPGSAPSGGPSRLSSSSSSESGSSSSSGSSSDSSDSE

For orientation: IC50 means the point on the concentration scale where inhibition reaches its midpoint. In general, Cmax refers to the highest concentration seen after dosing. For orientation: AUC(0-t) means the area under the concentration-time curve up to a stated or last time point. A higher AUC(0-t) goes with high exposure. Turning to `Cc1noc(C)c1-c1cc(C(N)=O)c2c3ccc(C(C)(C)O)cc3n(Cc3ccccc3)c2c1`, the IC50 in data set [1] turned out to be 0.0062 µM; in data set [2], 0.035 µM. In addition, the remaining at 10 min, 0.5 µM in data set [3] amounted to 58%; in [4], 62%. The Papp in data set [5] is 84.9 ×10⁻⁶ cm/s. Moreover, the Papp A→B in data set [6] was 7.6 ×10⁻⁶ cm/s. Further, the Papp B→A in data set [7] is 20.2 ×10⁻⁶ cm/s. The Cmax in data set [8] was found to be 7.1 µM. The same molecule displayed an AUC(0-t) at 7 h in [9] of 27.1 µM·h.
Turning to `Cc1noc(C)c1-c1cc(C(N)=O)c2c3cc(C(=O)N4C[C@@H](C)O[C@@H](C)C4)ccc3n(Cc3ccccc3)c2c1`, the IC50 was determined as 0.0042 µM in [10], 0.013 µM in data set [1] and 0.038 µM in data set [2]. The remaining at 10 min, 0.5 µM in data set [3] amounted to 9%; in data set [4] it was 19%. Besides, the Papp in [5] came to 80.9 ×10⁻⁶ cm/s.
As for `Cc1noc(C)c1-c1cc(C(N)=O)c2c3cc(C(C)(C)O)ccc3n(Cc3ccccc3)c2c1`, the figures for the IC50 in data set [10], in data set [1] and in [2] were 0.0045 µM, 0.023 µM and 0.095 µM, respectively. The Papp in data set [5] worked out at 74.9 ×10⁻⁶ cm/s.
With `Cc1noc(C)c1-c1cc(C(N)=O)c2c3ccc(C(C)(C)O)cc3n([C@@H](c3ccccc3)C3CCOCC3)c2c1`, the IC50 in data set [10] was determined as 0.0054 µM; in data set [1], 0.01 µM; in [2], 0.046 µM. In addition, the remaining at 10 min, 0.5 µM stood at 24% in [3] and 0% in data set [4]. Besides, the Papp in [5] was 58.4 ×10⁻⁶ cm/s.
Take `Cc1noc(C)c1-c1cc(C(N)=O)c2c3ccc(C(C)(C)O)cc3n(CC3CCOCC3)c2c1`: the figures for the IC50 in [10], in data set [1] and in data set [2] were 0.0095 µM, 0.023 µM and 0.128 µM, respectively. The remaining at 10 min, 0.5 µM in [3] was determined as 75%; in data set [4], 55%. Besides, the Papp in data set [5] turned out to be 40.2 ×10⁻⁶ cm/s.
Consider `Cc1noc(C)c1-c1cc(C(N)=O)c2c3ccc(C(C)(C)O)cc3n([C@H](c3ccccc3)C3CCOCC3)c2c1`, for which the 50% inhibitory concentration (IC50) in data set [10] came out at 0.001 µM; in [1], 0.0009 µM; in data set [2], 0.0031 µM. Besides, the remaining at 10 min, 0.5 µM came out at 52% in [3] and 20% in data set [4]. For the same molecule, the Papp in [5] was 67.1 ×10⁻⁶ cm/s. Moreover, in data set [6], the Papp A→B worked out at 3.4 ×10⁻⁶ cm/s. For the same molecule, the Papp B→A in [7] is 36.4 ×10⁻⁶ cm/s. Moreover, the highest level in data set [8] (Cmax) was 0.4 µM. Also, the AUC(0-t) at 7 h in data set [9] was 1 µM·h.
`Cc1nocc1-c1cc(C(N)=O)c2c(c1)c1ccc(C(=O)N3C[C@@H](C)O[C@@H](C)C3)cc1n2CC1CC1`: the IC50 in [10] amounted to 0.131 µM; in data set [1] it was 0.268 µM; in data set [2], 2.96 µM.
As usually defined, the efflux ratio is the permeability from basolateral to apical divided by that in the opposite direction, in the common usage. On to `Cc1noc(C)c1-c1cc(C(N)=O)c2c3ccc(C(C)(C)O)cc3n([C@H](c3ccc(F)cc3)C3CCOCC3)c2c1`, for which the IC50 in data set [10] was found to be 0.0019 µM; in [1], 0.0004 µM; in [2], 0.0031 µM. Further, the remaining at 10 min, 0.5 µM is 52% in [3] and 33% in data set [4]. Also, in [5], the Papp is 70.2 ×10⁻⁶ cm/s. The molecule further came in with a peak concentration (Cmax) in [8] of 0.9 µM. The same molecule gave an AUC(0-t) at 7 h in data set [9] of 4.3 µM·h. For the same molecule, the efflux ratio in data set [11] came to 6.1.
`Cc1noc(C)c1-c1cc(C(N)=O)c2[nH]c3cc(C(=O)N4CCOCC4)ccc3c2c1`: the values for the 50% inhibitory concentration (IC50) in data set [10], in data set [1] and in data set [2] were 0.712 µM, 1.16 µM and greater than 2.5 µM, respectively.
Consider `Cc1nnn(C)c1-c1cc(C(N)=O)c2c(c1)c1ccc(C(=O)N3C[C@@H](C)O[C@@H](C)C3)cc1n2CC1CC1`, for which the IC50 in data set [10] stood at 0.035 µM; in data set [1] it was 0.291 µM; in data set [2] it was 0.796 µM.
For `Cc1noc(C)c1-c1cnc2c3ccc(C(C)(C)O)cc3n([C@H](c3ccccc3)C3CCOCC3)c2c1`, the IC50 in data set [10] was 0.0019 µM; in data set [1], 0.0015 µM; in [2], 0.0084 µM; in [12] it was 0.0017 µM; in data set [13], 0.0019 µM; at Cytochrome P450 1A2, greater than 20 µM. In addition, the IC50 against Cytochrome P450 2C9 was 4.1 µM; against Cytochrome P450 2C19, 1.5 µM; against Cytochrome P450 2D6 it was greater than 20 µM; on Cytochrome P450 3A4, greater than 20 µM; in data set [14], 51 µM. In addition, the remaining at 10 min, 0.5 µM was 54% in [3] and 42% in [4]. In addition, in data set [5], the Papp amounted to 98.4 ×10⁻⁶ cm/s. Besides, the Papp A→B in data set [6] is 26.3 ×10⁻⁶ cm/s. Besides, the Papp B→A in [7] came to 22.9 ×10⁻⁶ cm/s. This molecule gave a Cmax in data set [8] of 9.2 µM. The molecule further gave an AUC(0-t) at 7 h in data set [9] of 45.7 µM·h. The efflux ratio in [11] came to 0.9.
For the molecule `Cc1noc(C)c1-c1cc(C(N)=O)c2c(c1)c1ccc(C(=O)N3C[C@@H](C)O[C@@H](C)C3)cc1n2CC1CC1`, the results for the IC50 in [10], in [1] and in data set [2] were 0.023 µM, 0.051 µM and 0.525 µM, respectively.
On the same counts, the results for `Cc1noc(C)c1-c1cc(C(N)=O)c2c(c1)c1ccc(C(=O)N3CCOCC3)cc1n2CC1CC1` are 0.039 µM, 0.093 µM and 0.414 µM.
For `Cc1n[nH]c(C)c1-c1cc(C(N)=O)c2c(c1)c1ccc(C(=O)N3C[C@@H](C)O[C@@H](C)C3)cc1n2CC1CC1`, the IC50 was determined as 0.53 µM in data set [10], 1.24 µM in data set [1] and 7.6 µM in [2].
For `Cc1noc(C)c1-c1cc(C(N)=O)c2c3ccc(C(C)(C)O)cc3n(C(c3ccccc3)c3ccccc3)c2c1`, the results for the IC50 in data set [10], in [1] and in [2] were 0.0015 µM, 0.0039 µM and 0.011 µM, respectively. Further, the remaining at 10 min, 0.5 µM was 13% in data set [3] and 26% in [4]. Moreover, in data set [5], the Papp was determined as 68.2 ×10⁻⁶ cm/s.
For `Cc1oncc1-c1cc(C(N)=O)c2c(c1)c1ccc(C(=O)N3C[C@@H](C)O[C@@H](C)C3)cc1n2CC1CC1`, the IC50 worked out at 0.292 µM in data set [10], 0.645 µM in [1] and 3.53 µM in data set [2].
Take `Cc1noc(C)c1-c1cc(C(N)=O)c2c3cc(C(=O)N4C[C@@H](C)O[C@@H](C)C4)ccc3n(CC3CC3)c2c1`: the figures for the IC50 in data set [10], in [1] and in [2] were 0.069 µM, 0.259 µM and 0.422 µM, respectively.
